Patent US20070054916A1, “Aryl nitrogen-containing bicyclic compounds and methods of use” (Amgen Inc., priority 2004, published 2007)

tested on: production of TNF by monocytes activated with bacterial lipopolysaccharide (LPS); assay: Lipopolysaccharide-activated monocyte TNF production assay; format: cell-based; settings: Homo sapiens, read-out: IC50 values in the monocyte assay (LPS induced TNF release)
Summary of the method: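 Adherent human PBMC-derived monocytes (~70%) in DMEM/2% FCS were pre-incubated 60 min with nine two-fold compound dilutions, then stimulated with E. coli K532 LPS (added as 30 ng/ml solution) for 4 h at 37 °C. Supernatant TNF-α was measured by sandwich ELISA. IC50 was taken from a polynomial fit of TNF versus compound concentration.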

Compound | IC50 [µM]
CNc1ncc2cc(-c3cc(C(=O)Nc4ccc(F)c(C(F)(F)F)c4)ccc3C)ccc2n1 [Example 16, N-(4-fluoro-3-(trifluoromethyl)phenyl)-4-methyl-3-(2-(methylamino)-6-quinazolinyl)benzamide] | ≤ 25
CNc1ncc2cc(-c3cccc(C(=O)Nc4cccc(OC(F)(F)F)c4)c3C)cnc2n1 [Example 183, 2-methyl-3-(2-(methylamino)pyrido [2,3-d]pyrimidin-6-yl)-N-(3-((trifluoromethyl)oxy)phenyl)benzamide] | ≤ 25
COc1c(C(=O)Nc2cc(C(F)(F)F)ccc2N(C)CCCN(C)C)cc(-c2ccc3nc(N)ncc3c2)c(OC)c1OC [Example 110, 5-(2-amino-6-quinazolinyl)-N-(2-((3-(dimethylamino)propyl)methyl)amino-5-(trifluoromethyl)phenyl)-2,3,4-tris(methyloxy)benzamide] | ≤ 25
CNc1ncc2cc(-c3cc(C(=O)Nc4ccc(OC)c(C(F)(F)F)c4)ccc3C)cnc2n1 [Example 184, 4-methyl-3-(2-(methylamino)pyrido [2,3-d]pyrimidin-6-yl)-N-(4-(methyloxy)-3-(trifluoromethyl)phenyl)benzamide] | ≤ 25
Cc1ccc(C(=O)Nc2cccc(NC(=O)CN3CCOCC3)c2C)cc1-c1ccc2nc(N)ncc2c1 [Example 56, 3-(2-Amino-6-quinazolinyl)-4-methyl-N-(2-methyl-3-((4-morpholinylacetyl)amino)phenyl)benzamide] | ≤ 25
Cc1ccc(C(=O)Nc2cc(C(C)(C)C)ccc2N(C)CCCN(C)C)cc1-c1ccc2nc(N)ncc2c1 [Example 244, 3-(2-amino-6-quinazolinyl)-N-(2-((3-(dimethylamino)propyl)(methyl)amino)-5-(1,1-dimethylethyl)phenyl)-4-methylbenzamide] | ≤ 25
Cc1cccc(C)c1-c1ccc2nc(NCCN3CCOCC3)ncc2c1 [Example 534, 6-(2,6-dimethylphenyl)-N-(2-morpholinoethyl)quinazolin-2-amine] | ≤ 25
Cc1ccc(C(=O)Nc2cccc(C(F)(F)F)c2C)cc1-c1ccc2nc(NC3CC3)ncc2c1 [Example 37, 3-(2-(cyclopropylamino)-6-quinazolinyl)-4-methyl-N-(2-methyl-3-(trifluoromethyl)phenyl)benzamide] | ≤ 25
Nc1ncc2cc(-c3cc(C(=O)Nc4cccc(C(F)(F)F)c4)ccc3F)ccc2n1 [Example 137, 3-(2-amino-6-quinazolinyl)-4-fluoro-N-(3 (trifluoromethyl)phenyl)benzamide] | ≤ 25
Cc1ccc(C(=O)Nc2ncccc2O)cc1-c1ccc2nc(N)ncc2c1 [Example 361, 3-(2-amino-6-quinazolinyl)-N-(3-hydroxy-2-pyridinyl)-4-methylbenzamide] | ≤ 25
Cc1ccc(C(=O)Nc2c(N(C)CCCN(C)C)ccc(C(F)(F)F)c2C)cc1-c1ccc2nc(N)ncc2c1 [Example 117, 3-(2-amino-6-quinazolinyl)-N-(6-((3-(dimethylamino)propyl)(methyl)amino)-2-methyl-3-(trifluoromethyl)phenyl)-4-methylbenzamide] | ≤ 25
Cc1ccc(C(F)(F)F)cc1NC(=O)c1ccc(C)c(-c2ccc3nc(N)ncc3c2)c1 [Example 365, 3-(2-amino-6-quinazolinyl)-4-methyl-N-(2-methyl-5-(trifluoromethyl)phenyl)benzamide] | ≤ 25
Cc1ccc(C(=O)Nc2cccc(C(F)(F)F)c2C)cc1-c1ccc2nc(NCCN3CCCC3)ncc2c1 [Example 33, 4-methyl-N-(2-methyl-3-(trifluoromethyl)phenyl)-3-(2-((2-(1-pyrrolidinyl)ethyl)amino)-6-quinazolinyl) benzamide] | ≤ 25
Cc1ccc(NC(=O)c2cc(C(F)(F)F)ccc2C(F)(F)F)cc1-c1ccc2nc(N)ncc2c1 [Example 430, N-(3-(2-amino-6-quinazolinyl)-4-methylphenyl)-2,5-bis(trifluoromethyl)benzamide] | ≤ 25
Cc1cc(NC(=O)c2ccc(C)c(-c3ccc4nc(N)ncc4c3)c2)c(N(C)CCCN(C)C)cc1C [Example 116, 3-(2-amino-6-quinazolinyl)-N-(2-((3-(dimethylamino)propyl)(methyl)amino)-4,5-dimethylphenyl)-4-methylbenzamide] | ≤ 25
Cc1ccc(NC(=O)Nc2cccc(C(F)(F)F)c2)cc1-c1ccc2nc(N)ncc2c1 [Example 524, N-(3-(2-amino-6-quinazolinyl)-4-methylphenyl)-N′-(3-(trifluoromethyl)phenyl)urea] | ≤ 25
CNc1ncc2cc(-c3cc(C(=O)Nc4cc(C(F)(F)F)ccc4F)ccc3C)ccc2n1 [Example 1, N-(2-fluoro-5-(trifluoromethyl)phenyl)-4-methyl-3-(2-(methylamino)quinazolin-6-yl)benzamide] | ≤ 25
Cc1cc(F)c(C(=O)Nc2cccc(C(F)(F)F)c2)cc1-c1ccc2nc(N)ncc2c1 [Example 126, 5-(2-amino-6-quinazolinyl)-2-fluoro-4-methyl-N-(3-(trifluoromethyl)phenyl)benzamide] | ≤ 25
COc1ccc(C(C)(C)C)cc1NC(=O)c1ccc(Cl)c(-c2ccc3nc(N)ncc3c2)c1 [Example 139, 3-(2-amino-6-quinazolinyl)-4-chloro-N-(5-(1,1-dimethylethyl)-2-(methyloxy)phenyl)benzamide] | ≤ 25
Cc1ccc(C(=O)Nc2ccc(OC3CCN(C)CC3)c(C(F)(F)F)c2)cc1-c1ccc2nc(N)ncc2c1 [Example 123, 3-(2-amino-6-quinazolinyl)-4-methyl-N-(4-((1-methyl-4-piperidinyl)oxy)-3-(trifluoromethyl)phenyl)benzamide] | ≤ 25
Cc1ccc(F)c(NC(=O)c2ccc(C)c(-c3ccc4nc(N)ncc4c3)c2)c1 [Example 147, 3-(2-amino-6-quinazolinyl)-N-(2-fluoro-5-methylphenyl)-4-methylbenzamide] | ≤ 25

target: LCK KD GST (225-509) (Homo sapiens, UniProt P06239); assay: LCK Homogenous Time Resolved Flourescent (HTRF) kinase assay; settings: average IC50 value in the human HTRF assay for the inhibition of the Lck kinase enzyme
Sequence (P06239 225-509): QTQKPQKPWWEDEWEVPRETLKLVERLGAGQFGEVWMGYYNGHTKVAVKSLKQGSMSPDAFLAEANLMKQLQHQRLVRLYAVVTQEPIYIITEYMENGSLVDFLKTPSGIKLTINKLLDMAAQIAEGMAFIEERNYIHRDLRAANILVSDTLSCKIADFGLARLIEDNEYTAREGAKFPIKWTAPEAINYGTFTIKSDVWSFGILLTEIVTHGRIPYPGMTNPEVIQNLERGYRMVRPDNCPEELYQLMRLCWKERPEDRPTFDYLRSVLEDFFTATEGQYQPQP

Compound | IC50 [nM]
Cc1ccc(C(=O)Nc2cc(C(F)(F)F)ccc2CN2CCN(C)CC2)cc1-c1ccc2ncnc(N)c2c1 [Example 383, 3-(4-amino-6-quinazolinyl)-4-methyl-N-(2-((4-methyl-1-piperazinyl)methyl)-5-(trifluoromethyl)phenyl)benzamide] | ≤ 1000
Cc1ccc(C(=O)Nc2cc(Cl)ccc2N(C)CCCN(C)C)cc1-c1ccc2nc(N)ncc2c1 [Example 95, 3-(2-amino-6-quinazolinyl)-N-(5-chloro-2-((3-(dimethylamino)propyl)(methyl)amino)phenyl)-4-methylbenzamide] | ≤ 1000
Cc1ccc(C(=O)NC2CC2)cc1-c1ccc2nc(NC3CCN(C)CC3)ncc2c1 [Example 45, N-cyclopropyl-4-methyl-3-(2-((1-methyl-4-piperidinyl)amino)-6-quinazolinyl) benzamide] | ≤ 25000
CC(C)c1cccc(C(=O)Nc2cc(-c3ccc4nc(N)ncc4c3)cc(C(F)(F)F)c2)c1 [Example 512, N-(3-(2-amino-6-quinazolinyl)-5-(trifluoromethyl)phenyl)-3-(1-methylethyl)benzamide] | ≤ 1000
CN(C)CCCN(C)c1ccc(C(F)(F)F)cc1NC(=O)c1cc(-c2ccc3nc(N)ncc3c2)cc2c1OCC2 [Example 96, 5-(2-amino-6-quinazolinyl)-N-(2-((3-(dimethylamino)propyl)(methyl)amino)-5-(trifluoromethyl)phenyl)-2,3-dihydro-1-benzofuran-7-carboxamide] | ≤ 1000
CNc1ncc2cc(-c3cc(C(=O)Nc4ccc(F)c(C(F)(F)F)c4)ccc3C)ccc2n1 [Example 16, N-(4-fluoro-3-(trifluoromethyl)phenyl)-4-methyl-3-(2-(methylamino)-6-quinazolinyl)benzamide] | ≤ 1000
CNc1ncc2cc(-c3cccc(C(=O)Nc4cccc(OC(F)(F)F)c4)c3C)cnc2n1 [Example 183, 2-methyl-3-(2-(methylamino)pyrido [2,3-d]pyrimidin-6-yl)-N-(3-((trifluoromethyl)oxy)phenyl)benzamide] | ≤ 1000
Cc1ccc(C(=O)NC2CC2)cc1-c1ccc2nc(NCCN3CCCCC3)ncc2c1 [Example 47, N-cyclopropyl-4-methyl-3-(2-((2-(1-piperidinyl)ethyl)amino)-6-quinazolinyl) benzamide] | ≤ 1000
COc1c(C(=O)Nc2cc(C(F)(F)F)ccc2N(C)CCCN(C)C)cc(-c2ccc3nc(N)ncc3c2)c(OC)c1OC [Example 110, 5-(2-amino-6-quinazolinyl)-N-(2-((3-(dimethylamino)propyl)methyl)amino-5-(trifluoromethyl)phenyl)-2,3,4-tris(methyloxy)benzamide] | ≤ 1000
Nc1ncc2cc(-c3cccc(C(=O)Nc4cccc(OC(F)(F)F)c4)c3)ccc2n1 [Example 98, 3-(2-amino-6-quinazolinyl)-N-(3-((trifluoromethyl)oxy)phenyl)benzamide] | ≤ 1000
Nc1ncc2cc(-c3ccc(C(=O)Nc4cccc(C(F)(F)F)c4)cc3)ccc2n1 [Example 15, 4-(2-amino-6-quinazolinyl)-N-(3-(trifluoromethyl)phenyl)benzamide] | ≤ 1000
CNc1ncc2cc(-c3cc(C(=O)Nc4ccc(OC)c(C(F)(F)F)c4)ccc3C)cnc2n1 [Example 184, 4-methyl-3-(2-(methylamino)pyrido [2,3-d]pyrimidin-6-yl)-N-(4-(methyloxy)-3-(trifluoromethyl)phenyl)benzamide] | ≤ 1000
Nc1ncnc2ccc(-c3cccc(NC(=O)c4cccc(C(F)(F)F)c4)c3)cc12 [Example 513, N-(3-(4-amino-6-quinazolinyl)phenyl)-3-(trifluoromethyl)benzamide] | ≤ 1000
Cc1ccc(C(=O)Nc2cccc(NC(=O)CN3CCOCC3)c2C)cc1-c1ccc2nc(N)ncc2c1 [Example 56, 3-(2-Amino-6-quinazolinyl)-4-methyl-N-(2-methyl-3-((4-morpholinylacetyl)amino)phenyl)benzamide] | ≤ 1000
CC1(C)CC(=O)Nc2cc(NC(=O)c3cc(-c4ccc5nc(N)ncc5c4)ccc3F)ccc21 [Example 412] | ≤ 1000
Cc1ccc(C(=O)Nc2cc(C(F)(F)F)ccc2N(C)C)cc1-c1ccc2ncnc(N)c2c1 [Example 385, 3-(4-amino-6-quinazolinyl)-N-(2-(dimethylamino)-5-(trifluoromethyl)phenyl)-4-methylbenzamide] | ≤ 1000
Cc1ccc(C(=O)NCCN(C)C)cc1-c1ccc2nc(N)ncc2c1 [Example 134, 3-(2-amino-6-quinazolinyl)-N-(2-(dimethylamino)ethyl)-4-methylbenzamide] | ≤ 25000
Cc1ccc(C(=O)Nc2cc(C(F)(F)F)ccc2N(C)C2CCN(C)C2)cc1-c1ccc2nc(N)ncc2c1 (stereo in doubt) [Example 238, 3-(2-amino-6-quinazolinyl)-4-methyl-N-(2-(methyl((3S)-1-methyl-3-pyrrolidinyl)amino-5-(trifluoromethyl)phenyl)berizamide] | ≤ 1000
COc1c(Br)cc(-c2ccc3nc(N)ncc3c2)cc1C(=O)Nc1cc(C(F)(F)F)ccc1N(C)CCCN(C)C [Example 103, 5-(2-amino-6-quinazolinyl)-3-bromo-N-(2-((3-(dimethylamino)propyl)(methyl)amino)-5-(trifluoromethyl)phenyl)-2-(methyloxy)benzamide] | ≤ 1000
Cc1ccc(C(=O)NC2CC2)cc1-c1ccc2nc(NCCN(C)C)ncc2c1 [Example 44] | ≤ 25000
